Results: PMC10452110, “Indole-3-Acetamido-Polyamines as Antimicrobial Agents and Antibiotic Adjuvants” (Biomolecules, 2023)
Like-named read-outs stand apart in the source and are kept apart here.

Experiments:
[1] = Cytotoxicity assay; assay type: cell-based; settings: human; HEK293 cells; mean (n = 2); read-out: Cytotoxicity: concentration of compound at 50% cytotoxicity (IC50)
Procedure: Cytotoxicity assays were conducted using the protocols previously reported.

[2] = test system: Staphylococcus aureus (ATCC 25923); assay: Intrinsic antimicrobial activity (MIC) against S. aureus; assay type: cell-based
Procedure: (§1) The susceptibility of bacterial strains Staphylococcus aureus (ATCC 25923), Escherichia coli (ATCC 25922) and Pseudomonas aeruginosa (ATCC 27853) to antibiotics and compounds was determined using previously reported protocols. Additional antimicrobial evaluation against MRSA (ATCC 43300), Klebsiella pneumoniae (ATCC 700603), Acinetobacter baumannii (ATCC 19606), Candida albicans (ATCC 90028) and Cryptococcus neoformans (ATCC 208821) was undertaken at the Community for Open Antimicrobial Drug Discovery at The University of Queensland (Australia) according to their standard protocols, as reported previously.

[3] = test system: MRSA (ATCC 43300); assay: Intrinsic antimicrobial activity (MIC) against MRSA; assay type: cell-based; settings: Staphylococcus aureus, MRSA ATCC 43300; mean (n = 2); read-out: MIC MRSA
Procedure: as §1

[4] = test system: Klebsiella pneumoniae (ATCC 700603); assay: Intrinsic antimicrobial activity (MIC) against K. pneumoniae; assay type: cell-based
Procedure: as §1

[5] = test system: Cryptococcus neoformans (ATCC 208821); assay: Intrinsic antifungal activity (MIC) against C. neoformans; assay type: cell-based
Procedure: as §1

[6] = test system: P. aeruginosa ATCC 27853; assay: Enhancement of doxycycline action against P. aeruginosa; assay type: cell-based, Pseudomonas aeruginosa; settings: doxycycline at 4.5 µM
Procedure: (§2) Antibiotic enhancer concentrations were determined using previously reported protocols.

[7] = test system: E. coli ATCC 25922; assay: Enhancement of erythromycin action against E. coli; assay type: cell-based, Escherichia coli; settings: erythromycin at 10.9 µM
Procedure: as §2

[8] = test system: human red blood cells; assay: Hemolytic assay; assay type: cell-based; settings: mean (n = 2)
Procedure: Hemolysis assays were conducted using the protocols previously reported.

[9] = test system: Acinetobacter baumannii (ATCC 19606); assay: Intrinsic antimicrobial activity (MIC) against A. baumannii; assay type: cell-based
Procedure: as §1

[10] = test system: Pseudomonas aeruginosa (ATCC 27853); assay: Intrinsic antimicrobial activity (MIC) against P. aeruginosa; assay type: cell-based
Procedure: as §1

[11] = test system: Candida albicans (ATCC 90028); assay: Intrinsic antifungal activity (MIC) against C. albicans; assay type: cell-based
Procedure: as §1

[12] = test system: Escherichia coli (ATCC 25922); assay: Intrinsic antimicrobial activity (MIC) against E. coli; assay type: cell-based
Procedure: as §1

[13] = ATCC25923, S. aureus ATCC 25923, mean (n = 3), read-out: MIC S. a
[14] = ATCC700603, K. pneumoniae ATCC 700603, mean (n = 2), read-out: MIC K. p
[15] = ATCC208821, C. neoformans ATCC 208821, mean (n = 2), read-out: MIC C. n
[16] = ATCC19606, A. baumannii ATCC 19606, mean (n = 2), read-out: MIC A. b
[17] = ATCC27853, P. aeruginosa ATCC 27853, mean (n = 3), read-out: MIC P. a
[18] = ATCC90028, C. albicans ATCC 90028, mean (n = 2), read-out: MIC C. a
[19] = ATCC25922, E. coli ATCC 25922, mean (n = 3), read-out: MIC E. c

SMILES	IC50 [1]	MIC [2, 13]	MIC [3]	MIC [4, 14]	MIC [5, 15]	Dox/P. a fold change (ratio between intrinsic MIC of the test compound and combination MIC) [6]	Dox/P. a: concentration required to restore doxycycline activity (combination MIC) [6]	Eryth/E. c: concentration required to restore erythromycin activity (combination MIC) [7]	Hemolysis: concentration of compound at 10% hemolytic activity (HC10) [8]	MIC [9, 16]	MIC [10, 17]	MIC [11, 18]	MIC [12, 19]	MIC ([2]; ATCC25923, read-out: MIC S. a)	MIC ([4]; ATCC700603, read-out: MIC K. p)	MIC ([5]; ATCC208821, read-out: MIC C. n)	MIC ([9]; ATCC19606, read-out: MIC A. b)	MIC ([10]; ATCC27853, read-out: MIC P. a)	MIC ([11]; ATCC90028, read-out: MIC C. a)	MIC ([12]; ATCC25922, read-out: MIC E. c)
O=C(Cc1c[nH]c2ccc(Br)cc12)NCCCNCCCCCCCCNCCCNC(=O)Cc1c[nH]c2ccc(Br)cc12.O=C(O)C(F)(F)F.O=C(O)C(F)(F)F [Compound 15d, N^1,N^8-Bis(3-(2-(5-bromo-1H-indol-3-yl)acetamido)propyl)octane-1,8-diaminium 2,2,2-trifluoroacetate]	> 33 µM	13 µM	≤ 0.26 µM	> 33 µM	≤ 0.26 µM	> 4 fold	52.2 µM	52.2 µM	10.1 µM	> 33 µM	> 209 µM	2.09 µM	26.1 µM							
O=C(Cc1c[nH]c2ccccc12)NCCCNCCCCCCCCCCNCCCNC(=O)Cc1c[nH]c2ccccc12.O=C(O)C(F)(F)F.O=C(O)C(F)(F)F [Compound 14e, N^1,N^10-Bis(3-(2-(1H-indol-3-yl)acetamido)propyl)decane-1,10-diaminium 2,2,2-trifluoroacetate]	> 39 µM		≤ 0.3 µM			4 fold	15.1 µM	15.1 µM	≤0.30 µM					3.77 µM	> 39 µM	≤ 0.3 µM	> 39 µM	60.3 µM	≤ 0.3 µM	15.1 µM
O=C(Cc1c[nH]c2ccc(Br)cc12)NCCCNCCCCCCCCCCCCNCCCNC(=O)Cc1c[nH]c2ccc(Br)cc12.O=C(O)C(F)(F)F.O=C(O)C(F)(F)F [Compound 15f, N^1,N^12-Bis(3-(2-(5-bromo-1H-indol-3-yl)acetamido)propyl)dodecane-1,12-diaminium 2,2,2-trifluoroacetate]	4.75 µM	6.16 µM	≤ 0.25 µM	> 32 µM	≤ 0.25 µM	2 fold	98.5 µM	24.6 µM	≤0.25 µM	7.88 µM	197 µM	≤ 0.25 µM	12.3 µM							
O=C(Cc1c[nH]c2ccccc12)NCCCNCCCCCCCCNCCCNC(=O)Cc1c[nH]c2ccccc12.O=C(O)C(F)(F)F.O=C(O)C(F)(F)F [Compound 14d, N^1,N^8-Bis(3-(2-(1H-indol-3-yl)acetamido)propyl)octane-1,8-diaminium 2,2,2-trifluoroacetate]	> 40 µM	31.2 µM	≤ 0.31 µM	> 40 µM	≤ 0.31 µM	> 1 fold	250 µM	250 µM	15.8 µM	> 40 µM	> 250 µM	> 40 µM	62.4 µM							
Cc1ccc2[nH]cc(CC(=O)NCCCNCCCCCCCCCCNCCCNC(=O)Cc3c[nH]c4ccc(C)cc34)c2c1.O=C(O)C(F)(F)F.O=C(O)C(F)(F)F [Compound 17e, N^1,N^10-Bis(3-(2-(5-methyl-1H-indol-3-yl)acetamido)propyl)decane-1,10-diaminium 2,2,2-trifluoroacetate]	> 37 µM	7.29 µM	≤ 0.29 µM	> 37 µM	≤ 0.29 µM	1 fold	233 µM	29.2 µM	3.19 µM	37 µM	233 µM	≤ 0.29 µM	58.3 µM							
Cc1ccc2[nH]cc(CC(=O)NCCCNCCCCNCCCNC(=O)Cc3c[nH]c4ccc(C)cc34)c2c1.O=C(O)C(F)(F)F.O=C(O)C(F)(F)F [Compound 17a, N^1,N^4-Bis(3-(2-(5-methyl-1H-indol-3-yl)acetamido)propyl)butane-1,4-diaminium 2,2,2-trifluoroacetate]	> 41 µM	129 µM	≤ 0.32 µM	> 41 µM	≤ 0.32 µM	> 2 fold	129 µM	64.7 µM	8.46 µM	> 41 µM	> 259 µM	20.7 µM	> 259 µM							
Cc1ccc2[nH]cc(CC(=O)NCCCNCCCCCCCCCCCCNCCCNC(=O)Cc3c[nH]c4ccc(C)cc34)c2c1.O=C(O)C(F)(F)F.O=C(O)C(F)(F)F [Compound 17f, N^1,N^12-Bis(3-(2-(5-methyl-1H-indol-3-yl)acetamido)propyl)dodecane-1,12-diaminium 2,2,2-trifluoroacetate]	> 36 µM	7.06 µM	≤ 0.28 µM	> 36 µM	≤ 0.28 µM	1 fold	226 µM	14.1 µM	≤0.28 µM	36 µM	226 µM	≤ 0.28 µM	14.1 µM							
O=C(Cc1c[nH]c2ccc(Br)cc12)NCCCNCCCCCCCCCCNCCCNC(=O)Cc1c[nH]c2ccc(Br)cc12.O=C(O)C(F)(F)F.O=C(O)C(F)(F)F [Compound 15e, N^1,N^10-Bis(3-(2-(5-bromo-1H-indol-3-yl)acetamido)propyl)decane-1,10-diaminium 2,2,2-trifluoroacetate]	> 32 µM	6.33 µM	≤ 0.25 µM	> 32 µM	≤ 0.25 µM	4 fold	12.7 µM	12.7 µM	≤0.25 µM	> 32 µM	50.7 µM	≤ 0.25 µM	12.7 µM							
O=C(Cc1c[nH]c2ccccc12)NCCCNCCCCCCCNCCCNC(=O)Cc1c[nH]c2ccccc12.O=C(O)C(F)(F)F.O=C(O)C(F)(F)F [Compound 14c, N^1,N^7-Bis(3-(2-(1H-indol-3-yl)acetamido)propyl)heptane-1,7-diaminium 2,2,2-trifluoroacetate]	> 41 µM	15.9 µM	≤ 0.32 µM	> 41 µM	≤ 0.32 µM	4 fold	63.5 µM	> 254 µM	0.72 µM	> 41 µM	> 254 µM	> 41 µM	> 254 µM							
